Consider eight substances from paper PMC9101373, “Design of DNA Intercalators Based on 4-Carboranyl-1,8-Naphthalimides: Investigation of Their DNA-Binding Ability and Anticancer Activity” (International Journal of Molecular Sciences, 2022).

The subject of experiment [1] is HepG2 cells. The experiment can be described thus: Apoptosis/necrosis assay by flow cytometry (Annexin V). The class given is cell-based, human. To be noted: HepG2, 24 h at total IC50, Annexin V. The protocol:
To investigate whether compounds 54–61 induced apoptosis in HepG2 cells, we incubated the cells with these compounds for 24 h and performed a flow cytometry analysis. The concentration chosen for each compound corresponded to their total IC50 values. After incubation, the cells were stained with Annexin V Alexa Fluor 647 conjugate, which enabled detection of the externalization of phosphatidylserine, one of the earliest indicators of apoptosis. To eliminate the influence of the solvent (DMSO), we also analyzed its ability to induce apoptosis in a volume that corresponded to the highest concentration. […] The other compounds, 57, 58, 59, and 61, could not induce as high apoptosis as those mentioned above. Approximately one-third of cells targeted apoptotic pathways (33.4%, 39.1%, 23.1%, and 37.1%, respectively) when treated with these compounds (Figure 6).
HepG2 cells (3.85 × 10^5) were seeded onto 6-well plates, cultured in supplemented EMEM medium (Corning®) at 37 °C and 5% CO2 saturation, and incubated until 70–80% cell confluency was achieved. Subsequently, the cells were treated for 24 h, with the tested compounds 54–61 were added at a concentration corresponding to their total IC50 values. Next, the cells were detached with trypsin (Corning®) and washed twice with DPBS (1 mL) (Thermo Fisher Scientific, Waltham, MA, USA). In the meantime, annexin-binding buffer (10 mM HEPES, 140 mM NaCl, and 2.5 mM CaCl2, pH 7.4) was prepared. The cells were resuspended in annexin-binding buffer (100 μL per assay) and stained with Alexa Fluor™ 680 annexin V conjugate (ex/em: ~679/702 nm, Thermo Fisher Scientific, Waltham, MA, USA) according to the manufacturer’s protocol (5 μL of the annexin V conjugate was added to each 100 μL of cell suspension) and incubated for 15 min at RT, in the dark. After the incubation period, annexin-binding buffer (400 μL) was added, mixed gently, and the samples were kept on ice during the analysis. The cells were analyzed immediately after staining with […] by Accuri C6 flow cytometer (Becton Dickinson, Franklin Lake, NJ, USA) with excitation at 635 nm. The rate of apoptosis was evaluated immediately by FlowJo software.
Figure 6 Effect of compounds 54 (5.5 µM), 55 (3.4 µM), 56 (12 µM), 57 (3.1 µM), 58 (3.9 µM), 59 (5.4 µM), 60 (31 µM), and 61 (4.8 µM) on cell death in HepG2 cells. The cells were incubated with the tested compounds for 24 h at the concentration corresponding to the total IC50 values. Quantitative flow cytometry analysis was performed to evaluate apoptosis/necrosis induced by compounds after 24 h of treatment. Data are presented as the mean ± SD of three independent experiments. Statistical significance is indicated with asterisks: (ns) p > 0.05, (**) p < 0.01, (***) p < 0.001, and (****) p < 0.0001.

In experiment [2] the test system is HepG2 cells. The experiment can be described thus: In vitro cytotoxic activity, MTT assay. As to conditions: 24 h treatment, read-out: IC50, compound concentration required to inhibit cell growth by 50%. In kind it is cell-based, human. The protocol: The obtained 1,8-naphthalimide–carborane conjugates were investigated for their in vitro antitumor activity by examining their cytotoxic effects using the MTT tetrazolium dye assay against the human cancer cell line HepG2 established from hepatocellular carcinoma. IC50 refers to the drug concentration (µM) required to inhibit cell growth by 50%.
The cytotoxic properties of the synthesized compounds were evaluated using the human hepatocellular carcinoma cell line HepG2 established from hepatocellular carcinoma. The HepG2 cell line was purchased from ECACC (Salisbury, UK). Cells were grown in EMEM medium (Corning®) supplemented with 10% heat-inactivated fetal bovine serum (FBS) (Corning®) and antibiotics (Corning®), at 37 °C in a 5% CO2 atmosphere. Upon reaching 80–90% confluency, cells were detached with the trypsin (Corning®) and transferred into 96-well microplates at a density of 12 × 10^3. After overnight incubation at 37 °C in a humidified atmosphere containing 5% CO2, the cells were treated for the next 24 h with compounds. The stock solution of each compound was prepared in DMSO at 10 mM. The cytotoxicity was evaluated by the MTT assay. […] Subsequently, the medium was aspirated and replaced with 3-(4,5-dimethylthiazol-2-yl)-2,5-diphenyltetrazolium bromide (MTT) dye solution (50 µL, 0.5 mg/mL). After 3 h incubation, the resulting MTT formazan crystals were dissolved in DMSO (100 µL). To ensure the complete dissolution of formazan, the plates were shaken on an orbital microplate shaker at 1000 rpm for 15 min (Thermoshaker NeoLab 7–0055, Bionovo, Legnica, Poland). The optical density of each well was then measured on a VICTOR Nivo multimode plate reader at a wavelength of 570 nm. Each experiment consisted of 6 replications of each concentration, and each experiment was repeated three times independently. The results were calculated as a percentage of control group viability. The IC50 values were determined using a non-linear regression from the plot of % viability against log dose of compounds by using GraphPad Prism 6.0 software (GraphPad, San Diego, CA, USA).

Turning to “N-[2-N-Pyrrolidinyl)ethyl]-4-[(6-(2-(1,7-dicarba-closo-dodecaborane-1-yl)-ethylamino)hexyl)amino]-1,8-naphthalimide [Compound 61]”, the “apoptosis rate, apoptotic cells” value in the experiment on HepG2 cells [1] came to 37.1%. In the experiment on HepG2 cells [2], the IC50 came out at 4.79 ± 0.06 µM.

In the case of “N-[2-N-Pyrrolidinyl)ethyl]-4-[(6-(2-(1,2-dicarba-closo-dodecaborane-1-yl)-ethylamino)hexyl)amino]-1,8-naphthalimide [Compound 60]”, the “apoptosis rate, apoptotic cells” value with HepG2 cells [1] is on record as 46.9%. In addition, the IC50 in the experiment on HepG2 cells [2] was 30.9 ± 2.66 µM.

For “N-[2-(Pyrrolidin-1-yl)ethyl]-4-[(2-(2-(1,2-dicarba-closo-dodecaborane-1-yl)-ethylamino)ethyl)amino]-1,8-naphthalimide [Compound 56]”, the “apoptosis rate, apoptotic cells” value in the experiment with HepG2 cells [1] amounted to 77.4%. The IC50 in the experiment on HepG2 cells [2] was 12.1 ± 1.03 µM.

For “N-[2-(Dimethylamino)ethyl]-4-[(6-(2-(1,7-dicarba-closo-dodecaborane-1-yl)-ethylamino)hexyl)amino]-1,8-naphthalimide [Compound 59]”, in the experiment with HepG2 cells [1], the “apoptosis rate, apoptotic cells” value came out at 23.1%. The IC50 with HepG2 cells [2] came out at 5.35 ± 1.36 µM.

Consider “N-[2-(Dimethylamino)ethyl]-4-[(6-(2-(1,2-dicarba-closo-dodecaborane-1-yl)-ethylamino)hexyl)amino]-1,8-naphthalimide [Compound 58]”, for which the “apoptosis rate, apoptotic cells” value in the experiment on HepG2 cells [1] was determined as 39.1%. For the same substance, in the experiment on HepG2 cells [2], the IC50 is 3.87 ± 1.03 µM.

In the case of “N-[2-(Dimethylamino)ethyl]-4-[(2-(2-(1,2-dicarba-closo-dodecaborane-1-yl)-ethylamino)ethyl)amino]-1,8-naphthalimide [Compound 54]”, the “apoptosis rate, apoptotic cells” value in the experiment on HepG2 cells [1] stood at 44.3%. Moreover, the IC50 in the experiment with HepG2 cells [2] came to 5.49 ± 0.38 µM.

For “N-[2-(Pyrrolidin-1-yl)ethyl]-4-[(2-(2-(1,7-dicarba-closo-dodecaborane-1-yl)-ethylamino)ethyl)amino]-1,8-naphthalimide [Compound 57]”, the “apoptosis rate, apoptotic cells” value in the experiment on HepG2 cells [1] is listed as 33.4%. Besides, the IC50 in the experiment with HepG2 cells [2] was found to be 3.12 ± 0.04 µM.

Turning to “N-[2-(Dimethylamino)ethyl]-4-[(2-(2-(1,7-dicarba-closo-dodecaborane-1-yl)-ethylamino)ethyl)amino]-1,8-naphthalimide [Compound 55]”, in the experiment on HepG2 cells [1], the “apoptosis rate, apoptotic cells” value turned out to be 48.2%. Besides, the IC50 in the experiment on HepG2 cells [2] was found to be 3.43 ± 0.28 µM.
